# Source: PubChem BioAssay AID252 (DTP/NCI, 2004)
# Several values for one entry are separate records, joined by “and”; a condition that tells them apart may be missing. Equal entries are not always repeated. Inconclusive results and toxic doses are left out. *1 amine or outer side, *2 acyl side, *3 side chain or, on linkers, in order; H or OH if unused. Where a SMILES comes first, the peptide text is derived from it. Bridges are numbered along the chain shown (N, C = ends). Roman numbers before positions name the chains, in order. [ ]: non-standard residue; d: D form. Actinocin(9to1) = Cc1c2oc3c(C)ccc(C(=O)[*:1])c3nc-2c(C(=O)[*:2])c(N)c1=O; aThr = C[C@H](O)[C@H](N)C(=O)O; NMeV = CN[C@H](C(=O)O)C(C)C; Sar = CNCC(=O)O
# System: BDF1 mice, intracerebral L1210 leukemia, survival T/C
# Assay: NCI In Vivo Anticancer Drug Screen. Data for tumor model L1210 Leukemia (intracerebral) in B6D2F1 (BDF1) mice
# Details: higher = longer survival
# How it was run: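 Mice carrying transplanted tumour were dosed with compound; survival was recorded and expressed as treated-group value (T) divided by vehicle-control value (C).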
# [1] = endpoint: mean survival time, dose: 15.0 mg/kg/injection, schedule: Q01DX001 (ip), vehicle: other
structure (smiles),measurement,setting,value
O=NN(CCCl)C(=O)NC1CCC(O)CC1 (stereo unspecified),T/C,"endpoint: mean survival time, dose: 13.0 mg/kg/injection, schedule: Q01DX001 (ip), vehicle: saline with Tween-80",152 % of control
same,T/C,"endpoint: mean survival time, dose: 13.0 mg/kg/injection, schedule: Q01DX001 (ip), vehicle: saline",177 % of control
same,T/C,"endpoint: mean survival time, dose: 20.0 mg/kg/injection, schedule: Q01DX001 (ip), vehicle: saline with Tween-80",418 % of control
same,T/C,"endpoint: mean survival time, dose: 26.0 mg/kg/injection, schedule: Q01DX001 (ip), vehicle: saline",448 % of control
same,T/C,"endpoint: mean survival time, dose: 30.0 mg/kg/injection, schedule: Q01DX001 (ip), vehicle: saline with Tween-80",479 % of control
same,T/C,"endpoint: mean survival time, dose: 40.0 mg/kg/injection, schedule: Q01DX001 (ip), vehicle: saline",479 % of control
same,T/C,"endpoint: mean survival time, dose: 44.0 mg/kg/injection, schedule: Q01DX001 (ip), vehicle: saline with Tween-80",286 % of control
same,T/C,"endpoint: mean survival time, dose: 60.0 mg/kg/injection, schedule: Q01DX001 (ip), vehicle: saline",322 % of control
same,T/C,"endpoint: mean survival time, dose: 67.0 mg/kg/injection, schedule: Q01DX001 (ip), vehicle: saline with Tween-80",96 % of control
same,T/C,"endpoint: mean survival time, dose: 90.0 mg/kg/injection, schedule: Q01DX001 (ip), vehicle: saline",114 % of control
O=NN(CCCl)C(=O)NC1CSCSC1,T/C,"endpoint: mean survival time, dose: 2.0 mg/kg/injection, schedule: Q01DX001 (ip), vehicle: other",103 % of control and 98 % of control
same,T/C,[1],153 % of control and 196 % of control
same,T/C,"endpoint: mean survival time, dose: 22.0 mg/kg/injection, schedule: Q01DX001 (ip), vehicle: other",360 % of control and 379 % of control
same,T/C,"endpoint: mean survival time, dose: 50.0 mg/kg/injection, schedule: Q01DX001 (ip), vehicle: other",89 % of control
N=c1nc2n(cc1F)[C@@H]1O[C@H](CO)[C@@H](O)[C@@H]1O2,T/C,"endpoint: median survival time, dose: 100.0 mg/kg/injection, schedule: Q01DX009 (ip), vehicle: saline",186 % of control
same,T/C,"endpoint: median survival time, dose: 200.0 mg/kg/injection, schedule: Q01DX009 (ip), vehicle: saline",204 % of control
same,T/C,"endpoint: median survival time, dose: 400.0 mg/kg/injection, schedule: Q01DX009 (ip), vehicle: saline",344 % of control
CNNCc1ccc(C(=O)NC(C)C)cc1,T/C,"endpoint: mean survival time, dose: 25.0 mg/kg/injection, schedule: Q01DX009 (ip), vehicle: saline",105 % of control
same,T/C,"endpoint: mean survival time, dose: 40.0 mg/kg/injection, schedule: Q01DX Z (ip), vehicle: saline",122 % of control
same,T/C,"endpoint: mean survival time, dose: 50.0 mg/kg/injection, schedule: Q01DX009 (ip), vehicle: saline",108 % of control
same,T/C,"endpoint: mean survival time, dose: 64.0 mg/kg/injection, schedule: Q01DX010 (oral), vehicle: clinical formulation",102 % of control
same,T/C,"endpoint: mean survival time, dose: 160.0 mg/kg/injection, schedule: Q01DX Z (ip), vehicle: saline",155 % of control
same,T/C,"endpoint: median survival time, dose: 0.5 mg/kg/injection, schedule: Q01DX010 (ip), vehicle: clinical formulation",105 % of control
same,T/C,"endpoint: median survival time, dose: 0.5 mg/kg/injection, schedule: Q01DX010 (ip), vehicle: saline",106 % of control
same,T/C,"endpoint: median survival time, dose: 1.0 mg/kg/injection, schedule: Q01DX010 (ip), vehicle: clinical formulation",105 % of control
same,T/C,"endpoint: median survival time, dose: 1.0 mg/kg/injection, schedule: Q01DX010 (ip), vehicle: saline",103 % of control
same,T/C,"endpoint: median survival time, dose: 1.0 mg/kg/injection, schedule: Q01DX010 (oral), vehicle: clinical formulation",105 % of control
same,T/C,"endpoint: median survival time, dose: 2.0 mg/kg/injection, schedule: Q01DX010 (ip), vehicle: clinical formulation",103 % of control
same,T/C,"endpoint: median survival time, dose: 2.0 mg/kg/injection, schedule: Q01DX010 (ip), vehicle: saline",106 % of control
same,T/C,"endpoint: median survival time, dose: 2.0 mg/kg/injection, schedule: Q01DX010 (oral), vehicle: clinical formulation",103 % of control
same,T/C,"endpoint: median survival time, dose: 4.0 mg/kg/injection, schedule: Q01DX010 (ip), vehicle: clinical formulation",99 % of control
same,T/C,"endpoint: median survival time, dose: 4.0 mg/kg/injection, schedule: Q01DX010 (ip), vehicle: saline",106 % of control
same,T/C,"endpoint: median survival time, dose: 4.0 mg/kg/injection, schedule: Q01DX010 (oral), vehicle: clinical formulation",105 % of control
same,T/C,"endpoint: median survival time, dose: 8.0 mg/kg/injection, schedule: Q01DX010 (ip), vehicle: clinical formulation",101 % of control
same,T/C,"endpoint: median survival time, dose: 8.0 mg/kg/injection, schedule: Q01DX010 (ip), vehicle: saline",111 % of control
same,T/C,"endpoint: median survival time, dose: 8.0 mg/kg/injection, schedule: Q01DX010 (oral), vehicle: clinical formulation",95 % of control
same,T/C,"endpoint: median survival time, dose: 16.0 mg/kg/injection, schedule: Q01DX010 (ip), vehicle: clinical formulation",103 % of control
same,T/C,"endpoint: median survival time, dose: 16.0 mg/kg/injection, schedule: Q01DX010 (ip), vehicle: saline",109 % of control
same,T/C,"endpoint: median survival time, dose: 16.0 mg/kg/injection, schedule: Q01DX010 (oral), vehicle: clinical formulation",92 % of control
same,T/C,"endpoint: median survival time, dose: 32.0 mg/kg/injection, schedule: Q01DX010 (ip), vehicle: clinical formulation",101 % of control
same,T/C,"endpoint: median survival time, dose: 32.0 mg/kg/injection, schedule: Q01DX010 (ip), vehicle: saline",104 % of control
same,T/C,"endpoint: median survival time, dose: 32.0 mg/kg/injection, schedule: Q01DX010 (oral), vehicle: clinical formulation",97 % of control
same,T/C,"endpoint: median survival time, dose: 64.0 mg/kg/injection, schedule: Q01DX010 (oral), vehicle: clinical formulation",109 % of control
same,T/C,"endpoint: median survival time, dose: 128.0 mg/kg/injection, schedule: Q01DX010 (oral), vehicle: clinical formulation",104 % of control
O=NN(CCCl)C(=O)NC1Cc2ccccc2C1,T/C,"endpoint: mean survival time, dose: 55.0 mg/kg/injection, schedule: Q01DX001 (ip), vehicle: other",116 % of control
same,T/C,"endpoint: mean survival time, dose: 84.0 mg/kg/injection, schedule: Q01DX001 (ip), vehicle: other",123 % of control
same,T/C,"endpoint: mean survival time, dose: 188.0 mg/kg/injection, schedule: Q01DX001 (ip), vehicle: other",94 % of control
CN(N=O)C(=O)C(=O)N(C)N=O,T/C,"endpoint: mean survival time, dose: 15.0 mg/kg/injection, schedule: Q01DX Z (ip), vehicle: saline",98 % of control
same,T/C,"endpoint: mean survival time, dose: 30.0 mg/kg/injection, schedule: Q01DX Z (ip), vehicle: saline",97 % of control
same,T/C,"endpoint: mean survival time, dose: 60.0 mg/kg/injection, schedule: Q01DX Z (ip), vehicle: saline",98 % of control
same,T/C,"endpoint: mean survival time, dose: 120.0 mg/kg/injection, schedule: Q01DX Z (ip), vehicle: saline",98 % of control
CN1CCN(CCCN2c3ccccc3Sc3ccc(C(F)(F)F)cc32)CC1,T/C,"endpoint: mean survival time, dose: 44.0 mg/kg/injection, schedule: Q04DX003 (ip), vehicle: water",108 % of control
O=NN(CCCl)C(=O)Nc1ccc(CC(=O)O)cc1,T/C,"endpoint: mean survival time, dose: 6.0 mg/kg/injection, schedule: Q01DX001 (ip), vehicle: carboxymethylcellulose (CMC)",104 % of control
same,T/C,"endpoint: mean survival time, dose: 9.0 mg/kg/injection, schedule: Q01DX001 (ip), vehicle: carboxymethylcellulose (CMC)",106 % of control
same,T/C,"endpoint: mean survival time, dose: 13.0 mg/kg/injection, schedule: Q01DX001 (ip), vehicle: carboxymethylcellulose (CMC)",110 % of control
same,T/C,"endpoint: mean survival time, dose: 26.0 mg/kg/injection, schedule: Q01DX001 (ip), vehicle: carboxymethylcellulose (CMC)",104 % of control
"Cc1c2oc3c(C)ccc(C(=O)N[C@@H]4C(=O)N[C@H](C(C)C)C(=O)N5CCC[C@H]5C(=O)N(C)CC(=O)N(C)[C@@H](C(C)C)C(=O)O[C@H]4C)c3nc-2c(C(=O)N[C@@H]2C(=O)N[C@H](C(C)C)C(=O)N3CCC[C@H]3C(=O)N(C)CC(=O)N(C)[C@@H](C(C)C)C(=O)O[C@H]2C)c(N)c1=O (I: [aThr][dV]P[Sar][NMeV] / II: [aThr][dV]P[Sar][NMeV]; ester I:1-I:C, II:1-II:C; linker I:N-II:N via Actinocin(9to1))",T/C,"endpoint: mean survival time, dose: 0.11 mg/kg/injection, schedule: Q01DX001 (ip), vehicle: saline",97 % of control
same,T/C,"endpoint: mean survival time, dose: 0.18 mg/kg/injection, schedule: Q01DX001 (ip), vehicle: saline",102 % of control
same,T/C,"endpoint: mean survival time, dose: 0.27 mg/kg/injection, schedule: Q01DX001 (ip), vehicle: saline",102 % of control
same,T/C,"endpoint: mean survival time, dose: 12.0 micrograms/kg/injection, schedule: Q01DX Z (ip), vehicle: saline",101 % of control
same,T/C,"endpoint: mean survival time, dose: 25.0 micrograms/kg/injection, schedule: Q01DX Z (ip), vehicle: saline",104 % of control
same,T/C,"endpoint: mean survival time, dose: 50.0 micrograms/kg/injection, schedule: Q01DX Z (ip), vehicle: saline",102 % of control
same,T/C,"endpoint: mean survival time, dose: 100.0 micrograms/kg/injection, schedule: Q01DX Z (ip), vehicle: saline",101 % of control
O=NN(CCCl)C(=O)NC1C=CCCC1 (stereo unspecified),T/C,[1],110 % of control
same,T/C,"endpoint: mean survival time, dose: 20.0 mg/kg/injection, schedule: Q01DX001 (ip), vehicle: other",118 % of control
same,T/C,"endpoint: mean survival time, dose: 25.0 mg/kg/injection, schedule: Q01DX001 (ip), vehicle: other",122 % of control
same,T/C,"endpoint: mean survival time, dose: 30.0 mg/kg/injection, schedule: Q01DX001 (ip), vehicle: other",118 % of control
same,T/C,"endpoint: mean survival time, dose: 35.0 mg/kg/injection, schedule: Q01DX001 (ip), vehicle: other",123 % of control
O=NN(CCCl)C(=O)NC1CCS(=O)(=O)C1 (stereo unspecified) (tested in a mixture with another compound),T/C,"endpoint: mean survival time, dose: 14.0 mg/kg/injection, schedule: Q01DX001 (oral), vehicle: other",172 % of control
same,T/C,"endpoint: mean survival time, dose: 16.0 mg/kg/injection, schedule: Q01DX001 (ip), vehicle: other",156 % of control
same,T/C,"endpoint: mean survival time, dose: 22.0 mg/kg/injection, schedule: Q01DX001 (oral), vehicle: other",217 % of control
same,T/C,"endpoint: mean survival time, dose: 36.0 mg/kg/injection, schedule: Q01DX001 (ip), vehicle: other",121 % of control
same,T/C,"endpoint: mean survival time, dose: 48.0 mg/kg/injection, schedule: Q01DX001 (oral), vehicle: other",116 % of control
COCCOC1=C(N2CC2)C(=O)C(OCCOC)=C(N2CC2)C1=O,T/C,"endpoint: mean survival time, dose: 0.25 mg/kg/injection, schedule: Q01DX009 (ip), vehicle: saline",98 % of control and 100 % of control
same,T/C,"endpoint: mean survival time, dose: 1.0 mg/kg/injection, schedule: Q01DX009 (ip), vehicle: saline",105 % of control and 109 % of control
same,T/C,"endpoint: mean survival time, dose: 2.0 mg/kg/injection, schedule: Q01DX009 (ip), vehicle: saline",104 % of control and 112 % of control and 114 % of control
